Assay results from patent US4551464A, “Antithrombotic sulfoximino carbostyrils” (Dr. Karl Thomae Gesellschaft mit beschrankter Haftung, priority 1981, dated 1985).

Tests used:
mice = test: Acute toxicity, single oral dose; assay type: in vivo; conditions: groups of 10 mice, single oral dose, observation period 14 days; dose at which 0 out of 10 animals died
Procedure: (§1) The acute toxicity of the compounds was determined in groups of 10 mice after oral administration of a single dose (observation period: 14 days): […]

[1] = Acute toxicity, single oral dose; assay type: in vivo, mice; conditions: mouse, in vivo; single oral dose of 250 mg (E: 1000 mg), 14 days observation, mice; read-out: animals that died out of 10
Procedure: as §1

[2] = system: phosphodiesterase (PDE) from human blood platelets; test: PDE Inhibition (human blood platelet phosphodiesterase, 3H-cAMP hydrolysis); assay type: biochemical; conditions: 1 μmol/liter 3H-cAMP, 15 minutes at 37° C., pH 7.4
Procedure: cAMP is hydrolyzed to AMP by phosphodiesterase (PDE) from various sources, including blood platelets.
The phosphodiesterase used was prepared by centrifugal extraction at 10,000 G from human blood platelets which were frozen in water and then thawed.
0.3 ml of a mixture containing 0.1 mol/liter of trihydroxy-aminomethane (pH 7.4), 3 mmols/liter of magnesium chloride, 1 mmol/liter of AMP, 1 μmol/liter of ^3 H-cAMP (specific activity about 10 MBq/μmol), PDE and the inhibitor under investigation (water in the case of the control) was incubated for 15 minutes at 37° C. The incubation was stopped by the addition of 0.5 ml zinc sulfate (0.266 mol/liter) and 0.5 ml barium hydroxide (0.226 mol/liter), the precipitate was centrifuged, and the activity remaining in the unreacted ^3 H-cAMP in the supernatant was determined. From a comparison of the results for inhibitor and control cases, the concentration of the respective inhibitor necessary for a 50% inhibiting effect (IC50) was calculated: […]

conscious mice = test: Determination of the prolongation of bleeding time (tail tip, oral, conscious mice); assay type: in vivo; conditions: Mus musculus, 2.5 mg/kg oral, after 1 hour, compared to control group, 5 animals per experiment
Procedure: To measure the bleeding time, 2.5 mg/kg of the test compound were administered orally to conscious mice. After one hour, 0.5 mm of the tip of the tail of each mouse was cut off and the droplets of blood were gently removed with filter paper every 30 seconds. The number of drops of blood thus obtained give a bleeding time (5 animals per experiment).
The results of the following table represent the prolongation of the bleeding time in percent as compared to a control group: […]

| SMILES | Approximate acute toxicity (dose) (mice) [mg] | mortality at 336 h [1] [%] | IC50 [2] [nM] | change in vivo at 2.5 mg/kg (conscious mice) [%] |
| --- | --- | --- | --- | --- |
| N=S(=O)(CCCCOc1ccc2c(c1)CCC(=O)N2)c1ccccc1 (stereo not shown) [B, 6-(4-phenylsulfoximino-butoxy)-3,4-dihydrocarbostyril] | 250 | 0 | 2000 | > 161 |
| N=S(=O)(CCCCOc1ccc2c(c1)CCC(=O)N2)c1ccc(F)cc1 (stereo not shown) [C, 6-[4-(4-fluorophenyl-sulfoximino)-butoxy]-3,4-dihydrocarbostyril] | 250 | 0 | 1200 | 125 |
| CS(=N)(=O)CCCCOc1ccc2c(c1)CCC(=O)N2 (stereo not shown) [Compound A, 6-(4-methylsulfoximino-butoxy)-3,4-dihydrocarbostyril mesitylenesulfonate] | 250 | 0 | 45000 | 73 |
| Cc1cc(S(=N)(=O)CCCCOc2ccc3[nH]c(=O)ccc3c2)ccc1Br (stereo not shown) [Compound I, 6-[4-(3-methyl-4-bromophenyl-sulfoximino)-butoxy]-carbostyril] | 250 | 0 | 39 | > 275 |
| N=S(=O)(CCCCOc1ccc2c(c1)CCC(=O)N2)c1ccc(Cl)cc1 (stereo not shown) [D, 6-[4-(4-chlorophenyl-sulfoximino)-butoxy]-3,4-dihydrocarbostyril] | 250 | 0 | 840 | 53 |
| CC(=O)N=S(=O)(CCCCOc1ccc2c(c1)CCC(=O)N2)c1ccc(Cl)c(Cl)c1 (stereo not shown) [E, 6-[4-(N-acetyl-3,4-dichlorophenyl-sulfoximino)-butoxy]-3,4-dihydrocarbostyril] | 1000 | 0 | 840 | > 194 |
| Cc1ccc(S(=O)(=O)N=S(=O)(CCCCOc2ccc3c(c2)CCC(=O)N3)c2ccc(Cl)c(Cl)c2)cc1 (stereo not shown) [F, 6-[4-(N-p-toluenesulfonyl-3,4-dichlorophenyl-sulfoximino)-butoxy]-3,4-dihydrocarbostyril] | 250 | 0 | 900 | > 212 |
| N=S(=O)(CCCCOc1ccc2[nH]c(=O)ccc2c1)c1ccc(F)cc1 (stereo not shown) [G, 6-[4-(4-fluorophenyl-sulfoximino)-butoxy]-carbostyril] | 250 | 0 | 400 | 85 |
| N=S(=O)(CCCCOc1ccc2[nH]c(=O)ccc2c1)c1ccc(Cl)cc1 (stereo not shown) [H, 6-[4-(4-chlorophenyl-sulfoximino)-butoxy]-carbostyril] | 250 | 0 | 170 | 78 |
| CC(C)(C)c1ccc(S(=N)(=O)CCCCOc2ccc3c(c2)CCC(=O)N3)cc1 (stereo not shown) [K, 6-[4-(4-tert.butylphenyl-sulfoximino)-butoxy]-3,4-dihydrocarbostyril] |  |  | 240 | > 180 |
| N=S(=O)(CCCCOc1ccc2c(c1)CCC(=O)N2)c1ccc(C2CCCCC2)cc1 (stereo not shown) [L, 6-[4-(4-cyclohexylphenyl-sulfoximino)-butoxy]-3,4-dihydrocarbostyril] |  |  | 52 | > 191 |
| CC(C)(C)c1ccc(S(=N)(=O)CCCCOc2ccc3[nH]c(=O)ccc3c2)cc1 (stereo not shown) [M, 6-[4-(4-tert.butylphenyl-sulfoximino)-butoxy]-carbostyril] |  |  | 210 | > 191 |
| N=S(=O)(CCCCOc1ccc2[nH]c(=O)ccc2c1)C1CCCCC1 (stereo not shown) [N, 6-(4-cyclohexylsulfoximino-butoxy)-carbostyril] |  |  | 680 | > 184 |
| CCCC(=O)N=S(=O)(CCCCOc1ccc2c(c1)CCC(=O)N2)c1ccc(Cl)c(Cl)c1 (stereo not shown) [O, 6-[4-(N-butyryl-3,4-dichlorophenyl-sulfoximino)-butoxy]-3,4-dihydrocarbostyril] |  |  | 530 | > 233 |
| CC(=O)N=S(=O)(CCCCOc1ccc2c(c1)C(C)(C)C(=O)N2)c1ccc(Cl)cc1 (stereo not shown) [P, 5-[4-(N-Acetyl-4-chlorophenyl-sulfoximino)-butoxy]-3,3-dimethyl-indolin-2-one] |  |  | 1800 | > 169 |
| COc1ccc(S(=O)(CCCCOc2ccc3c(c2)CCC(=O)N3)=NC(=O)c2ccc(C(C)(C)C)cc2)cc1OC (stereo not shown) [Q, 6-[4-(N-tert.benzoyl-3,4-dimethoxyphenyl-sulfoximino)-butoxy]-3,4-dihydrocarbostyril] |  |  | 3100 | > 158 |
| COc1ccc(S(=N)(=O)CCCCOc2ccc3c(c2)CCC(=O)N3)cc1OC (stereo not shown) [R, 6-[4-(3,4-dimethoxyphenyl-sulfoximino)-butoxy]-3,4-dihydrocarbostyril] |  |  | 1600 | > 218 |
